Measured values taken from PubChem BioAssay (NCI).
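Exposure lasted 48 hours, with cells grown in 96-well plates and compounds tested at five concentrations. Abbreviation: GI50, concentration required for 50% inhibition of growth. TGI: concentration producing complete growth inhibition.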

Columns and labels:
Test in all cases: NCI-60 cell line screen, 48 h
786-0 renal = test system: 786-0 renal
A498 renal = test system: A498 renal
A549 NSCLC = test system: A549 NSCLC
ACHN renal = test system: ACHN renal
BT-549 breast = test system: BT-549 breast
CAKI-1 renal = test system: CAKI-1 renal
CCRF-CEM leukemia = test system: CCRF-CEM leukemia
COLO 205 colon = test system: COLO 205 colon
DU-145 prostate = test system: DU-145 prostate
EKVX NSCLC = test system: EKVX NSCLC
HCC-2998 colon = test system: HCC-2998 colon
HCT-116 colon = test system: HCT-116 colon
HCT-15 colon = test system: HCT-15 colon
HOP-62 NSCLC = test system: HOP-62 NSCLC
HOP-92 NSCLC = test system: HOP-92 NSCLC
HS 578T breast = test system: HS 578T breast
HT29 colon = test system: HT29 colon
IGROV1 ovarian = test system: IGROV1 ovarian
KM12 colon = test system: KM12 colon
LOX IMVI melanoma = test system: LOX IMVI melanoma
M14 melanoma = test system: M14 melanoma
MALME-3M melanoma = test system: MALME-3M melanoma
MCF7 breast = test system: MCF7 breast
MDA-MB-231 breast = test system: MDA-MB-231 breast
MDA-MB-435 = test system: MDA-MB-435
NCI-H226 lung = test system: NCI-H226 lung
NCI-H23 lung = test system: NCI-H23 lung
NCI-H460 lung = test system: NCI-H460 lung
NCI-H522 lung = test system: NCI-H522 lung
NCI/ADR-RES ovarian = test system: NCI/ADR-RES ovarian
OVCAR-3 ovarian = test system: OVCAR-3 ovarian
OVCAR-4 ovarian = test system: OVCAR-4 ovarian
OVCAR-5 ovarian = test system: OVCAR-5 ovarian
OVCAR-8 ovarian = test system: OVCAR-8 ovarian
PC-3 prostate = test system: PC-3 prostate
RPMI-8226 leukemia = test system: RPMI-8226 leukemia
RXF 393 renal = test system: RXF 393 renal
SF-268 CNS = test system: SF-268 CNS
SF-295 CNS = test system: SF-295 CNS
SK-MEL-2 melanoma = test system: SK-MEL-2 melanoma
SK-MEL-28 melanoma = test system: SK-MEL-28 melanoma
SK-MEL-5 melanoma = test system: SK-MEL-5 melanoma
SK-OV-3 ovarian = test system: SK-OV-3 ovarian
SN12C renal = test system: SN12C renal
SNB-19 CNS = test system: SNB-19 CNS
SNB-75 CNS = test system: SNB-75 CNS
SW-620 colon = test system: SW-620 colon
T-47D breast = test system: T-47D breast
TK-10 renal = test system: TK-10 renal
U251 CNS = test system: U251 CNS
UACC-257 melanoma = test system: UACC-257 melanoma
UACC-62 melanoma = test system: UACC-62 melanoma
UO-31 renal = test system: UO-31 renal

Structure (SMILES): CS(=O)CCCCCN=C=S (stereo unspecified)
- GI50 (786-0 renal): 5.68 µM
- TGI (786-0 renal): 19.5 µM
- GI50 (A498 renal): 10.4 µM
- TGI (A498 renal): 23.5 µM
- GI50 (A549 NSCLC): 7.52 µM
- TGI (A549 NSCLC): 24.2 µM
- GI50 (ACHN renal): 4.07 µM
- TGI (ACHN renal): 16.5 µM
- GI50 (BT-549 breast): 3.07 µM
- TGI (BT-549 breast): 11.5 µM
- GI50 (CAKI-1 renal): 3.69 µM
- TGI (CAKI-1 renal): 13.8 µM
- GI50 (CCRF-CEM leukemia): 4.1 µM
- TGI (CCRF-CEM leukemia): 16.3 µM
- GI50 (COLO 205 colon): 3.21 µM
- TGI (COLO 205 colon): 12 µM
- GI50 (DU-145 prostate): 2.81 µM
- TGI (DU-145 prostate): 10.6 µM
- GI50 (EKVX NSCLC): 10.4 µM
- TGI (EKVX NSCLC): 24.8 µM
- GI50 (HCC-2998 colon): 13.9 µM
- TGI (HCC-2998 colon): 28.8 µM
- GI50 (HCT-116 colon): 2.86 µM
- TGI (HCT-116 colon): 10.2 µM
- GI50 (HCT-15 colon): 2.9 µM
- TGI (HCT-15 colon): 12.1 µM
- GI50 (HOP-62 NSCLC): 12.5 µM
- TGI (HOP-62 NSCLC): 29.4 µM
- GI50 (HOP-92 NSCLC): 3.55 µM
- TGI (HOP-92 NSCLC): 9.52 µM
- GI50 (HS 578T breast): 6.38 µM
- TGI (HS 578T breast): 36 µM
- GI50 (HT29 colon): 3.47 µM
- TGI (HT29 colon): 11.1 µM
- GI50 (IGROV1 ovarian): 4.88 µM
- TGI (IGROV1 ovarian): 21.6 µM
- GI50 (KM12 colon): 3.33 µM
- TGI (KM12 colon): 13 µM
- GI50 (LOX IMVI melanoma): 0.782 µM
- TGI (LOX IMVI melanoma): 10.3 µM
- GI50 (M14 melanoma): 3.3 µM
- TGI (M14 melanoma): 14.6 µM
- GI50 (MALME-3M melanoma): 4.12 µM
- TGI (MALME-3M melanoma): 18.6 µM
- GI50 (MCF7 breast): 2.3 µM
- TGI (MCF7 breast): 13.2 µM
- GI50 (MDA-MB-231 breast): 4.76 µM
- TGI (MDA-MB-231 breast): 17.4 µM
- GI50 (MDA-MB-435): 3.57 µM
- TGI (MDA-MB-435): 15.8 µM
- GI50 (NCI-H226 lung): 17.5 µM
- TGI (NCI-H226 lung): 44.4 µM
- GI50 (NCI-H23 lung): 4.21 µM
- TGI (NCI-H23 lung): 24.5 µM
- GI50 (NCI-H460 lung): 2.53 µM
- TGI (NCI-H460 lung): 6.64 µM
- GI50 (NCI-H522 lung): 1.99 µM
- TGI (NCI-H522 lung): 5.87 µM
- GI50 (NCI/ADR-RES ovarian): 4.72 µM
- TGI (NCI/ADR-RES ovarian): 22 µM
- GI50 (OVCAR-3 ovarian): 3.07 µM
- TGI (OVCAR-3 ovarian): 10.1 µM
- GI50 (OVCAR-4 ovarian): 5.11 µM
- TGI (OVCAR-4 ovarian): 22.8 µM
- GI50 (OVCAR-5 ovarian): 10.6 µM
- TGI (OVCAR-5 ovarian): 25.5 µM
- GI50 (OVCAR-8 ovarian): 4.93 µM
- TGI (OVCAR-8 ovarian): 22.1 µM
- GI50 (PC-3 prostate): 11.6 µM
- TGI (PC-3 prostate): 25.6 µM
- GI50 (RPMI-8226 leukemia): 3.79 µM
- TGI (RPMI-8226 leukemia): 14.5 µM
- GI50 (RXF 393 renal): 3.37 µM
- TGI (RXF 393 renal): 9.45 µM
- GI50 (SF-268 CNS): 4.06 µM
- TGI (SF-268 CNS): 17.4 µM
- GI50 (SF-295 CNS): 17.1 µM
- TGI (SF-295 CNS): 31.4 µM
- GI50 (SK-MEL-2 melanoma): 3.43 µM
- TGI (SK-MEL-2 melanoma): 14.7 µM
- GI50 (SK-MEL-28 melanoma): 4.07 µM
- TGI (SK-MEL-28 melanoma): 16.8 µM
- GI50 (SK-MEL-5 melanoma): 5.3 µM
- TGI (SK-MEL-5 melanoma): 17.9 µM
- GI50 (SK-OV-3 ovarian): 13.7 µM
- TGI (SK-OV-3 ovarian): 27.3 µM
- GI50 (SN12C renal): 3.44 µM
- TGI (SN12C renal): 11.4 µM
- GI50 (SNB-19 CNS): 16.1 µM
- TGI (SNB-19 CNS): 32.1 µM
- GI50 (SNB-75 CNS): 3.01 µM
- TGI (SNB-75 CNS): 16.5 µM
- GI50 (SW-620 colon): 4.1 µM
- TGI (SW-620 colon): 15.9 µM
- GI50 (T-47D breast): 2.32 µM
- TGI (T-47D breast): 7.56 µM
- GI50 (TK-10 renal): 3.83 µM
- TGI (TK-10 renal): 10.3 µM
- GI50 (U251 CNS): 4.42 µM
- TGI (U251 CNS): 15.8 µM
- GI50 (UACC-257 melanoma): 4.35 µM
- TGI (UACC-257 melanoma): 19.7 µM
- GI50 (UACC-62 melanoma): 2.93 µM
- TGI (UACC-62 melanoma): 12.5 µM
- GI50 (UO-31 renal): 4 µM
- TGI (UO-31 renal): 17.2 µM
